Reference: patent US20250228832A1, “METHODS FOR TREATING DISORDERS AMELIORATED BY MUSCARINIC RECEPTOR ACTIVATION” (KARUNA THERAPEUTICS, INC., priority 2022, published 2025)
Like-named read-outs stand apart in the source and are kept apart here.

Legend:
human M4 receptor = target: T1, human M4 receptor (Homo sapiens, UniProt P08173); assay: SPA GTP (GTPgS) binding curve shift assay, M4; type: biochemical
T1 construct: expressed in transfected cells
T1 sequence (P08173 1-479): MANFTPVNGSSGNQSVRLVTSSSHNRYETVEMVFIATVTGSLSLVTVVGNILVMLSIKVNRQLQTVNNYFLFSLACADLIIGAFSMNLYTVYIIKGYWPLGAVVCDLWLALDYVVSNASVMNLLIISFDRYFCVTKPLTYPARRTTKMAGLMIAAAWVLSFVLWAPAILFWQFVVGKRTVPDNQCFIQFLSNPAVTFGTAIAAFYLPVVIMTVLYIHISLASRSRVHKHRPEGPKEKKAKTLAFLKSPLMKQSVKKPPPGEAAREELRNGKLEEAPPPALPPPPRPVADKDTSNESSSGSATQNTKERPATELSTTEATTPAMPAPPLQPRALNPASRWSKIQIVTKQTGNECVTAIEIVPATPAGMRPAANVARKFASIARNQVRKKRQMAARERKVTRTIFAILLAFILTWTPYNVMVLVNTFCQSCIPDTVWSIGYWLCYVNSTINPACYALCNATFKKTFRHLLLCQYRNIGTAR
Experimental: Membranes were prepared for GTPgS binding assays from CHO-K1 cells stably expressing human M2 or human M4 receptors. Cells were grown in 5-layer cell culture flasks. Cells were washed with 50 mL of PBS and then dissociated with 0.05% trypsin. Dissociated cells were then collected by centrifugation at 650×g for 8 min at 4° C. Pellets were rewashed in PBS by centrifugation and resuspended in 30 mL of 20 mM HEPES, 10 mM EDTA, pH 7.4. After sitting on ice for 30 min, membranes were collected by centrifugation at 50000×g for 15 min at 4° C., resuspended in 30 mL of 20 mM HEPES, 0.1 mM EDTA, pH 7.4, and collected again by centrifugation. Pellets were then washed twice by centrifugation in 30 mL of 20 mM HEPES, pH 7.4, and stored at −80° C. until the day of the assay. On the day of the assay, pellets were thawed on ice and resuspended in 1 mL of 20 mM HEPES, pH 7.4, 10 mM MgCl2, and 100 mM NaCl using Dounce homogenization.
According to Promega guidelines, membrane protein concentration was determined by BCA protein assay (Promega, Madison, WI).
On the day of the assay, serial dilutions of test PAM compounds were brought up in assay buffer (20 mM HEPES, 10 mM MgCl2; see Table 4 for NaCl concentrations) at four times the final assay concentration. […] of membrane homogenates (containing […] of membrane protein) were prepared in assay buffer supplemented with GDP at 4× final assay concentration (see Table 4 for GDP concentrations) and dispensed into 96 well polypropylene, U-bottom Greiner plates. Membrane plates were incubated for 10 min at room temperature with gentle shaking. Then, 25 μL of test compounds were added to assay plates. Plates were then incubated, with shaking, for an additional 10-15 min. Then, 25 μL of diluted agonists serially diluted in assay buffer at 4× final assay concentration was added to assay plates. Plates were then incubated, with shaking, for an additional 10-15 min. Next, […] of 0.4 nM ^35S-GTP (Perkin Elmer, Waltham, MA) in assay buffer was added to assay mixtures. The binding reaction was left on the shaker for 1 h at room temperature. Membranes in assay reactions were then transferred to GF/C filter plates (UniFilter, Perkin Elmer) and washed three times using FilterMate Harvester (Perkin Elmer) with cold assay buffer containing no GDP. Filter plates were then dried at 40° C. overnight, and […] of Beta Plate Scintillation liquid was added. Plates were top and bottom sealed before being read on the TopCount scintillation counter (Perkin Elmer, Waltham, MA).
(§1) Raw data for all assays was transmitted directly from plate readers into the Beacon database for processing. All assay plates contained positive and negative control wells for data normalization and scaling. […] All control wells contained DMSO at a final assay concentration that matched the test compound wells.
For GTPgS assays, the negative control wells were defined as 0% response. The highest response in a plate was scaled to 1, representing 100% response. Data from test compound wells was scaled to these controls and are reported as % control values. This was done to allow for subsequent GraphPad cooperativity analysis, setting the maximal response at no more than 1.

human M5 receptor = target: T2, human M5 receptor (Homo sapiens, UniProt P08912); assay: HTRF IP-One curve shift assay, M5; type: cell-based; details: M5
T2 construct: expressed in transfected cells
T2 sequence (P08912 1-532): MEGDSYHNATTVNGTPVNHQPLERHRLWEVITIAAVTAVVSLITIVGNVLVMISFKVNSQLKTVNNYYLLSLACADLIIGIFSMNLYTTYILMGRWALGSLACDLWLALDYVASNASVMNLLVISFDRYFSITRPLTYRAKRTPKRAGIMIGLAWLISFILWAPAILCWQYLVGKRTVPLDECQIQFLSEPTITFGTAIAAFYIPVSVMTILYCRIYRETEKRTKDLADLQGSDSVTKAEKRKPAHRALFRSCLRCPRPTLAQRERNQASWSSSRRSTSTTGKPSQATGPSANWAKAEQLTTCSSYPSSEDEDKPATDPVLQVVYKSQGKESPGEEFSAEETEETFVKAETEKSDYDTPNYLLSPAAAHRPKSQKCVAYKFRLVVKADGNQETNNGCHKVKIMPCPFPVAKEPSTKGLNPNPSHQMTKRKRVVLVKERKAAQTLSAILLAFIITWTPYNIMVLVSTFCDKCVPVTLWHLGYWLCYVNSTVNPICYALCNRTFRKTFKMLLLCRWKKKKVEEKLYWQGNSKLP
Experimental: HTRF IP-One assays were performed using frozen cell aliquots prepared from CHO-K1 cell lines stably expressing human M1, M3, or M5 receptors. Cells were frozen following typical cell freezing protocols. […] Dissociated cells were quenched in full media and collected by centrifugation at 290×g for 5 min. […] 1 mL aliquots of cells were dispensed into cryovial tubes and frozen in a controlled rate cryo-freezer container at −80° C. Cells were stored at −80° C. (or in liquid nitrogen if stored for at least six months) until the day of the assay.
On the day before the assay, frozen cells were rapidly thawed in a 37° C. water bath, brought up in 20 mL of full media, and collected via centrifugation at 290×g for 5 min. […] Next, […] of cells (10,000 cells/well) were dispensed into 384-well coming plates in triplicate. Cells were incubated overnight in a 37° C., 5% CO2 cell incubator.
Then, 2 μL of test compounds were added to the cells and incubated for 10 min at 37° C. in a 5% CO2 cell incubator. Next, 2 μL of diluted agonists serially diluted in assay buffer at 7× final assay concentration was added to assay plates. Finally, assay plates were incubated for two hours at 37° C. in a 5% CO2 cell incubator.
Six μL of IP-1 detection reagents (IP-One Gq HTRF kit, Cisbio Cat #62IPAPEJ) were dispensed to the cells. First, the plates were incubated for two hours at room temperature (IP-One detection reagents were made according to Cisbio protocol). Then, plates were read on an Envision plate reader following the Cisbio guidelines.
as §1
Counts from the standard curve wells were used to generate a sigmoidal standard curve, which was used to transform the raw counts from each well on the plate (scaling control wells and compound wells) into a pmol/well IP1 value.

Emax (human M4 receptor; MK-4710 concentration 0 nM): 67.6%
Emax at […] (human M4 receptor; MK-4710 concentration […]): 76.8%
Emax (human M5 receptor; Emraclidine concentration 41.2 nM, read-out: Emax): 77.7%
Emax at […] (human M5 receptor; Emraclidine concentration […], read-out: Emax): 72.3%
Emax (human M5 receptor; MK-4710 concentration 0 nM): 71.2%
Emax (human M5 receptor; MK-4710 concentration 1110 nM, read-out: Emax): 78.1%
Emax (human M5 receptor; MK-4710 concentration 3330 nM, read-out: Emax): 78.8%
Emax at […] (human M5 receptor; MK-4710 concentration […], read-out: Emax): 77.7%
SMILES: CC(=O)OCC[N+](C)(C)C [acetylcholine, reference compound]
